Where “and” joins values, the source holds several entries; their conditions need not be identical. Identical values can stand only once. Inconclusive results and toxic doses are left out. How the source made its calls: active means survival T/C of 150% or more; inactive means T/C below 125% in these data.
Test system: P388 leukemia ip, CD2F1 mice, survival T/C
Experiment: NCI In Vivo Anticancer Drug Screen. Data for tumor model P388 Leukemia (intraperitoneal) in CD2F1 (CDF1) mice
Details: endpoint: median survival time, higher = longer survival
In short: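 Mice carrying the transplanted tumor received test compound or vehicle. Survival was recorded in each group, and the value is the treated-group measurement divided by that of the vehicle-treated control group.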

[1] = dose: 100.0 mg/kg/injection, schedule: Q04DX003 (ip), vehicle: saline
[2] = dose: 200.0 mg/kg/injection, schedule: Q04DX003 (ip), vehicle: saline
[3] = dose: 400.0 mg/kg/injection, schedule: Q04DX003 (ip), vehicle: saline
[4] = dose: 12.5 mg/kg/injection, schedule: Q01DX009 (ip), vehicle: distilled water + Tween-80
[5] = dose: 25.0 mg/kg/injection, schedule: Q01DX009 (ip), vehicle: distilled water + Tween-80
[6] = dose: 50.0 mg/kg/injection, schedule: Q01DX009 (ip), vehicle: distilled water + Tween-80
[7] = dose: 100.0 mg/kg/injection, schedule: Q01DX009 (ip), vehicle: distilled water + Tween-80
[8] = dose: 200.0 mg/kg/injection, schedule: Q01DX009 (ip), vehicle: distilled water + Tween-80
[9] = dose: 50.0 mg/kg/injection, schedule: Q01DX009 (ip), vehicle: Klucel (hydroxypropylcellulose) (HPC)
[10] = dose: 100.0 mg/kg/injection, schedule: Q01DX009 (ip), vehicle: Klucel (hydroxypropylcellulose) (HPC)
[11] = dose: 200.0 mg/kg/injection, schedule: Q01DX009 (ip), vehicle: Klucel (hydroxypropylcellulose) (HPC)
[12] = dose: 50.0 mg/kg/injection, schedule: Q01DX005 (ip), vehicle: saline with Tween-80
[13] = dose: 100.0 mg/kg/injection, schedule: Q01DX005 (ip), vehicle: saline with Tween-80
[14] = dose: 200.0 mg/kg/injection, schedule: Q01DX005 (ip), vehicle: saline with Tween-80
[15] = dose: 50.0 mg/kg/injection, schedule: Q01DX009 (ip), vehicle: saline with Tween-80
[16] = dose: 100.0 mg/kg/injection, schedule: Q01DX009 (ip), vehicle: saline with Tween-80
[17] = dose: 200.0 mg/kg/injection, schedule: Q01DX009 (ip), vehicle: saline with Tween-80
[18] = dose: 25.0 mg/kg/injection, schedule: Q01DX009 (ip), vehicle: saline
[19] = dose: 50.0 mg/kg/injection, schedule: Q01DX009 (ip), vehicle: saline

Measured: T/C

CC1/C(=N\Nc2ccc([N+](=O)[O-])cc2)CC2C3(C)CCC2(C(C)C(=O)O)C(=O)C13 (centres undefined)
inactive: [1] 93 % of control | [2] 93 % of control | [3] 95 % of control

C=CC(C)(CCC=C(C)C)N=C=O (centres undefined)
inactive: [4] 100 % of control | [5] 91 % of control | [6] 105 % of control | [7] 114 % of control | [8] 108 % of control

Oc1ccc(C(c2ccc(O)cc2)C(Cl)(Cl)Cl)cc1
inactive: dose: 50.0 mg/kg/injection, schedule: Q04DX003 (ip), vehicle: saline + Tween-80 + alcohol 104 % of control | dose: 100.0 mg/kg/injection, schedule: Q04DX003 (ip), vehicle: saline + Tween-80 + alcohol 101 % of control | dose: 200.0 mg/kg/injection, schedule: Q04DX003 (ip), vehicle: saline + Tween-80 + alcohol 103 % of control | dose: 400.0 mg/kg/injection, schedule: Q04DX003 (ip), vehicle: saline + Tween-80 + alcohol 111 % of control

CC(=O)Nc1ncnc2c1c(C(N)=O)cn2C1OC(COC(C)=O)C(OC(C)=O)C1OC(C)=O (centres undefined)
inactive: dose: 1.88 mg/kg/injection, schedule: Q01DX005 (ip), vehicle: saline 107 % of control | dose: 3.75 mg/kg/injection, schedule: Q01DX005 (ip), vehicle: saline 117 % of control

COc1ccc(Nc2ncnc3ccccc23)cc1CN(CCCl)CCCl
inactive: dose: 100.0 mg/kg/injection, schedule: Q01DX001 (ip), vehicle: Klucel (hydroxypropylcellulose) (HPC) 100 % of control | dose: 200.0 mg/kg/injection, schedule: Q01DX001 (ip), vehicle: Klucel (hydroxypropylcellulose) (HPC) 90 % of control

C/C(=N/N=C(N)N)c1cnc(N/N=C(\C)c2cnc(NN)nc2C)nc1C
inactive: dose: 7.5 mg/kg/injection, schedule: Q01DX005 (ip), vehicle: saline 103 % of control | dose: 15.0 mg/kg/injection, schedule: Q01DX005 (ip), vehicle: saline 94 % of control | dose: 30.0 mg/kg/injection, schedule: Q01DX005 (ip), vehicle: saline 97 % of control

O=NN(CC(=O)O)CC1(O)OCC(O)C(O)C1O (centres undefined)
inactive: dose: 50.0 mg/kg/injection, schedule: Q01DX005 (ip), vehicle: saline 94 % of control | dose: 100.0 mg/kg/injection, schedule: Q01DX005 (ip), vehicle: saline 105 % of control | dose: 200.0 mg/kg/injection, schedule: Q01DX005 (ip), vehicle: saline 103 % of control

O=C1NC(=O)c2c(Br)c(Br)c(Br)c(Br)c21
inactive: [9] 109 % of control | [10] 109 % of control | [11] 105 % of control | dose: 400.0 mg/kg/injection, schedule: Q01DX009 (ip), vehicle: Klucel (hydroxypropylcellulose) (HPC) 96 % of control

COc1cccc2c1C(=O)c1c(O)c3c(c(O)c1C2=O)C[C@@](O)(/C(C)=N\NC=O)C[C@@H]3OC1CC(N)C(O)C(C)O1 (some centres undefined)
active: dose: 0.65 mg/kg/injection, schedule: Q01DX009 (ip), vehicle: saline 150 % of control | dose: 1.08 mg/kg/injection, schedule: Q01DX009 (ip), vehicle: saline 150 % of control | dose: 1.8 mg/kg/injection, schedule: Q01DX009 (ip), vehicle: saline 159 % of control | dose: 3.0 mg/kg/injection, schedule: Q01DX009 (ip), vehicle: saline 163 % of control | dose: 3.0 mg/kg/injection, schedule: Q04DX003 (ip), vehicle: saline 150 % of control | dose: 5.0 mg/kg/injection, schedule: Q01DX009 (ip), vehicle: saline 163 % of control | dose: 5.0 mg/kg/injection, schedule: Q04DX003 (ip), vehicle: saline 154 % of control | dose: 8.0 mg/kg/injection, schedule: Q01DX001 (ip), vehicle: saline 154 % of control | dose: 8.0 mg/kg/injection, schedule: Q01DX009 (ip), vehicle: saline 177 % of control | dose: 8.0 mg/kg/injection, schedule: Q04DX003 (ip), vehicle: saline 172 % of control | dose: 13.3 mg/kg/injection, schedule: Q01DX001 (ip), vehicle: saline 154 % of control | dose: 22.2 mg/kg/injection, schedule: Q01DX001 (ip), vehicle: saline 172 % of control | dose: 22.2 mg/kg/injection, schedule: Q04DX003 (ip), vehicle: saline 190 % of control | dose: 37.0 mg/kg/injection, schedule: Q01DX001 (ip), vehicle: saline 181 % of control

Cc1ccc(Nc2c3ccccc3nc3c2cnn3-c2ccccc2)cc1
inactive: dose: 60.0 mg/kg/injection, schedule: Q01DX005 (ip), vehicle: Klucel (hydroxypropylcellulose) (HPC) 91 % of control | dose: 120.0 mg/kg/injection, schedule: Q01DX005 (ip), vehicle: Klucel (hydroxypropylcellulose) (HPC) 90 % of control | dose: 240.0 mg/kg/injection, schedule: Q01DX005 (ip), vehicle: Klucel (hydroxypropylcellulose) (HPC) 87 % of control

COCCOC(=O)Cc1ccc(OC)c(OC)c1
inactive: dose: 100.0 mg/kg/injection, schedule: Q01DX009 (ip), vehicle: saline 91 % of control | dose: 200.0 mg/kg/injection, schedule: Q01DX009 (ip), vehicle: saline 100 % of control | dose: 400.0 mg/kg/injection, schedule: Q01DX009 (ip), vehicle: saline 104 % of control

O=C(CN1C(=O)c2cccc3c(Br)ccc(c23)C1=O)c1ccc(Cl)cc1
inactive: [12] 92 % of control | [13] 92 % of control | [14] 90 % of control

COc1ccccc1C(O)(C(F)(F)F)C(F)(F)F
inactive: [9] 101 % of control | [10] 98 % of control | [11] 95 % of control

NC1(N2SC(S)=C3CCCC=C32)CCCCC1
inactive: [15] 97 % of control | [16] 100 % of control | [17] 105 % of control

COc1ccc([N+](=O)[O-])c(C#N)c1
inactive: [1] 98 % of control | [2] 93 % of control | [3] 100 % of control

Cc1nc(CO)cc([N+](=O)[O-])c1C
inactive: [4] 101 % of control | [5] 101 % of control | [6] 100 % of control | [7] 101 % of control | [8] 104 % of control

C[C@H](N)C(=O)N[C@@H]1[C@H]2C(=C(O)C[C@@H](O)[C@@H]2O)C(=O)O[C@]1(C)C(Cl)Cl
active: dose: 0.78 mg/kg/injection, schedule: Q01DX009 (ip), vehicle: Klucel (hydroxypropylcellulose) (HPC) 150 % of control and 167 % of control | dose: 1.56 mg/kg/injection, schedule: Q01DX009 (ip), vehicle: Klucel (hydroxypropylcellulose) (HPC) 161 % of control and 187 % of control and 205 % of control
inactive: dose: 3.12 mg/kg/injection, schedule: Q01DX009 (ip), vehicle: Klucel (hydroxypropylcellulose) (HPC) 117 % of control and 118 % of control

CCCC(C(=O)OCCN(CC)CC)(c1ccccc1)c1ccccc1
inactive: dose: 12.5 mg/kg/injection, schedule: Q01DX009 (ip), vehicle: saline 108 % of control | dose: 12.5 mg/kg/injection, schedule: Q04DX003 (ip), vehicle: saline 100 % of control | [18] 100 % of control | dose: 25.0 mg/kg/injection, schedule: Q04DX003 (ip), vehicle: saline 100 % of control | [19] 91 % of control | dose: 50.0 mg/kg/injection, schedule: Q04DX003 (ip), vehicle: saline 100 % of control

Nc1ccc(-c2csc(Nc3ccnc4cc(Cl)ccc34)n2)cc1
inactive: [12] 99 % of control | [13] 93 % of control | [14] 88 % of control

C=CCN(CC=C)c1cc(NN)nnc1Cl
inactive: dose: 25.0 mg/kg/injection, schedule: Q01DX009 (ip), vehicle: other 102 % of control | dose: 50.0 mg/kg/injection, schedule: Q01DX009 (ip), vehicle: other 105 % of control

COc1ccc(C(=O)SCCCN=C(N)N)cc1
inactive: [12] 103 % of control | [13] 97 % of control

c1ccc2c(c1)CN1CCN=C1N2
inactive: [18] 100 % of control | [19] 94 % of control

COC1/C=C/OC2(C)Oc3c(C)c(O)c4c(c3C2=O)C(=O)C=C(NC(=O)/C(C)=C\C=C\C(C)C2OC(C)(C)OC(C2C)C(C)C(OC(C)=O)C1C)C4=O (centres undefined)
inactive: [15] 106 % of control | [16] 113 % of control | [17] 117 % of control
